Reference: patent publication US20260092071A1, “COMPOUNDS AND COMPOSITIONS AS SMARCA2/4 DEGRADERS AND USES THEREOF” (REGENTS OF THE UNIVERSITY OF MICHIGAN, priority 2022, published 2026)

Experiments:
SMARCA2 = SMARCA2 (Homo sapiens, UniProt P51531); assay: HiBit assay in engineered HT1080 CRISPR knock-in cell, 6 hrs (B series), SMARCA2; format: cell-based; conditions: 6 hrs incubation; for DC50: HT1080 CRISPR knock-in cells, read-out: SMARC A2 HT1080 HiBit DC50; for Dmax: HT-1080, HT1080 CRISPR knock-in cells, read-out: SMARC A2 HT1080 HiBit Dmax (%)
Sequence of SMARCA2 (P51531 whole entry): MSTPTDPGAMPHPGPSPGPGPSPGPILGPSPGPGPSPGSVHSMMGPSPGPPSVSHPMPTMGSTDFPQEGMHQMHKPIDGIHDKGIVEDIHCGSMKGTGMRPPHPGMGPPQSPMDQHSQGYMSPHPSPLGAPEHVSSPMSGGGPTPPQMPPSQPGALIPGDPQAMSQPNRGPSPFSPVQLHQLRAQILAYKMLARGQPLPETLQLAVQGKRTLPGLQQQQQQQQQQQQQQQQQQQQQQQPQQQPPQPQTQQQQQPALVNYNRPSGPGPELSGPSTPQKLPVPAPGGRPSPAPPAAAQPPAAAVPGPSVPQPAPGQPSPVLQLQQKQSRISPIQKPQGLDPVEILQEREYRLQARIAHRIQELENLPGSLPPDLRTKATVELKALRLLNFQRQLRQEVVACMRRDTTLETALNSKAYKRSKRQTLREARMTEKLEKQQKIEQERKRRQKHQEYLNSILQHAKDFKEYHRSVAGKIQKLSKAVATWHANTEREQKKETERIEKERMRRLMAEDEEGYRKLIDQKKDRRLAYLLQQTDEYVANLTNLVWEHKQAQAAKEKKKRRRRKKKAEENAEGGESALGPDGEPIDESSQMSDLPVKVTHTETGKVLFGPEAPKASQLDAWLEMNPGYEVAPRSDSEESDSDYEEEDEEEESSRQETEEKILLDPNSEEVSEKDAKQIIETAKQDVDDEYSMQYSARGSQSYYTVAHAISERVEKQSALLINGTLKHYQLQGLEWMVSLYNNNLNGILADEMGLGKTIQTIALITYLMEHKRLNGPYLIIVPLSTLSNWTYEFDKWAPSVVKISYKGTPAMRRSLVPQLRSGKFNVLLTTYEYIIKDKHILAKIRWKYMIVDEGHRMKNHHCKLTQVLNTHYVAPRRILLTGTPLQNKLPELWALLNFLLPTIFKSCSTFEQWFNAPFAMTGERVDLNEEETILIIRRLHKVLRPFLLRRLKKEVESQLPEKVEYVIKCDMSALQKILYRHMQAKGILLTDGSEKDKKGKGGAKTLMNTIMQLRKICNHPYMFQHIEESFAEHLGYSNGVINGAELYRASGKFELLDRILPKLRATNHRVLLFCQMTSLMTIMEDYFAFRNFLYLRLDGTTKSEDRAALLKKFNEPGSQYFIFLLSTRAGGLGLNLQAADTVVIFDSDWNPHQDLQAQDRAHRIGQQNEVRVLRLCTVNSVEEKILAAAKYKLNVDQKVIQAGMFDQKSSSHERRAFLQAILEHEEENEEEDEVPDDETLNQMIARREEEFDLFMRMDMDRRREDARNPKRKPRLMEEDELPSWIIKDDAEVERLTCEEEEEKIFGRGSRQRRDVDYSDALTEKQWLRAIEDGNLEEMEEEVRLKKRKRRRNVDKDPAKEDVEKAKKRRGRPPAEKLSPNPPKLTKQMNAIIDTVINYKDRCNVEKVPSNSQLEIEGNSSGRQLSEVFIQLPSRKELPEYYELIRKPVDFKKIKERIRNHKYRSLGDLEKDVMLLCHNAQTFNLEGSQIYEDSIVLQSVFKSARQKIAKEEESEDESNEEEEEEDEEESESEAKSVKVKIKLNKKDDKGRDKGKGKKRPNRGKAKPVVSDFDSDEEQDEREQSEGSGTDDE
Outline: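 Compounds were dispensed first, then HT1080 knock-in cells added and incubated for 6 hrs at 37° C. Next, detection reagent containing LgBiT and lytic substrate was added. Plates were shaken 10 min and centrifuged, and luminescence was measured.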

SMARCA4 = SMARCA4 (Homo sapiens, UniProt P51532); assay: HiBit assay in engineered HT1080 CRISPR knock-in cell, 6 hrs (B series), SMARCA4; format: cell-based; conditions: 6 hrs incubation; for DC50: HT1080 CRISPR knock-in cells, read-out: SMARC A4 HT1080 HiBit DC50; for Dmax: HT-1080, HT1080 CRISPR knock-in cells, read-out: SMARC A4 HT1080 HiBit Dmax(%)
Sequence of SMARCA4 (P51532 whole entry): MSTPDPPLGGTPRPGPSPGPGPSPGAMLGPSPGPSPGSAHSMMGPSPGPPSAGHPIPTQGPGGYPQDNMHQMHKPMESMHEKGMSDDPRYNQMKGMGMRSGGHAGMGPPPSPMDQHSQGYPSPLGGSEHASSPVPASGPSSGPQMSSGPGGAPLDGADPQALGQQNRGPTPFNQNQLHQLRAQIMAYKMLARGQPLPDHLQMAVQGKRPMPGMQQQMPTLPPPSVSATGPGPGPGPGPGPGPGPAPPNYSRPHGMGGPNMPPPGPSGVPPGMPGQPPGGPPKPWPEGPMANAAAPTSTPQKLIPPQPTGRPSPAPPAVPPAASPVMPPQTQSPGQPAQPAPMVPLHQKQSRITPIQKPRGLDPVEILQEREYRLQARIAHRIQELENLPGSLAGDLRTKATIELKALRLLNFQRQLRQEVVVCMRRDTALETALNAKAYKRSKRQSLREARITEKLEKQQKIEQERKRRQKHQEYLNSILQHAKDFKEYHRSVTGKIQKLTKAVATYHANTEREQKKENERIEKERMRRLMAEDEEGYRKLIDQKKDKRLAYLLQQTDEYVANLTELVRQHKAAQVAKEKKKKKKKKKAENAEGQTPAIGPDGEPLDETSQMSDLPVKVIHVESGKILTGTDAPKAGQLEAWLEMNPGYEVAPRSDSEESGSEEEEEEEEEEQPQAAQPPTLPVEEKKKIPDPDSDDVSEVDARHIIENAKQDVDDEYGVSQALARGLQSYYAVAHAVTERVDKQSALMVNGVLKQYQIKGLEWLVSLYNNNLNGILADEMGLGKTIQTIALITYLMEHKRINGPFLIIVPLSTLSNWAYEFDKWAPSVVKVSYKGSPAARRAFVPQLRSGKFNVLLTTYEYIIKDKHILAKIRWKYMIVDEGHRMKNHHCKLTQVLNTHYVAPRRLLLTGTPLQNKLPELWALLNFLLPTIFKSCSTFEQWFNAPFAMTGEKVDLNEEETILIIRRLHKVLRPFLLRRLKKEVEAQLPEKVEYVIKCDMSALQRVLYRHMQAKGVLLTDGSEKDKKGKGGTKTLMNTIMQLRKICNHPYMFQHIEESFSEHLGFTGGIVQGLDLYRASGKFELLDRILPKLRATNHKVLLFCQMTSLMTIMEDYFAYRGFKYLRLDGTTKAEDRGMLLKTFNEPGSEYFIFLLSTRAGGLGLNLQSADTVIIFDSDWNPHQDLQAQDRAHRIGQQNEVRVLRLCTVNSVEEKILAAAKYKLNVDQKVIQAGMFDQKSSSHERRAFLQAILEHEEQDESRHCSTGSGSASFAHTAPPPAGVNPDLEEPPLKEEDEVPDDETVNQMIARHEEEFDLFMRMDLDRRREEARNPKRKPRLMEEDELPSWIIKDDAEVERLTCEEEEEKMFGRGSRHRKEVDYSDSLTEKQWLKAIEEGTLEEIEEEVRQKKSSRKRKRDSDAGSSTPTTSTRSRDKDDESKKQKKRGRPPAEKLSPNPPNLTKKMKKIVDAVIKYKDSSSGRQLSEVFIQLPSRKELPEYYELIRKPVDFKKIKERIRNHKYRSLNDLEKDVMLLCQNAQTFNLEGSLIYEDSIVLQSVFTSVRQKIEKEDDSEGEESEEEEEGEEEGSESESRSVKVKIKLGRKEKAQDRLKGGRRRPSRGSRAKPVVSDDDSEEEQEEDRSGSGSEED
Experimental: The HiBit assay was performed using engineered HT1080 CRISPR knock-in cell utilizing the Nano-Glo HiBiT Lytic Detection System from Promega, Cat #N3040. Compounds were transferred, 25 nL DMSO or test compounds (final DMSO @ 0.1%) to intermediate plates (Corning3570) using ECHO550. Cells were seeded onto compounds at 2000 cells/25 μL/well and incubated for 6 hrs in a tissue culture incubator at 37° C. and 5% CO2. The LgBiT Protein was diluted at 1:100 and the Nano-Glo® HiBIT Lytic Substrate 1:50 into an appropriate volume of room temperature using the Nano-Glo® HiBiT Lytic Buffer. At the end of compound incubation time, 15 ul of the detection reagent was added to each well (without LgBiT for negative control wells) using the Thermo Scientific multidrop combi. The plate was shaken for 10 mins at RT using Combi. After briefly centrifugation (2000 rpm 1 mins), plate was read on Envision (Ultrasensitive luminescence model).

SMILES	DC50 (SMARCA2) [nM]	Dmax (SMARCA2) [%]	DC50 (SMARCA4) [nM]	Dmax (SMARCA4) [%]
Cc1ncsc1-c1ccc([C@H](C)NC(=O)[C@@H]2C[C@@H](O)CN2C(=O)[C@@H](NC(=O)CN2CCC(c3ccc4c(c3)C(C)(C)c3nc(=O)c5c(Br)cccc5n3-4)CC2)C(C)(C)C)cc1 [Compound B5, (2S,4R)-1-((S)-2-(2-(4-(4-bromo-7,7-dimethyl-5-oxo-5,7-dihydroindolo[1,2-a]quinazolin-9-yl)piperidin-1-yl)acetamido)-3,3-dimethylbutanoyl)-4-hydroxy-N—((S)-1-(4-(4-methylthiazol-5-yl)phenyl)ethyl)pyrrolidine-2-carboxamide]	< 100	> 90	< 100	> 90
CC(C)[C@@H](C(=O)N1C[C@H](O)C[C@H]1C(=O)N[C@@H](C)c1ccc(-c2scnc2C#CCN2CCOCC2)cc1)n1cc([C@H]2CC[C@H](CN3CCN(c4ccc5c(c4)-n4c(nc(=O)c6c(Cl)cccc64)C5(C)C)CC3)CC2)nn1 [Compound B136, (2S,4R)-1-((S)-2-(4-((1r,4S)-4-((4-(4-chloro-7,7-dimethyl-5-oxo-5,7-dihydroindolo[1,2-a]quinazolin-10-yl)piperazin-1-yl)methyl)cyclohexyl)-1H-1,2,3-triazol-1-yl)-3-methylbutanoyl)-4-hydroxy-N-((S)-1-(4-(4-(3-morpholinoprop-1-yn-1-yl)thiazol-5-yl)phenyl)ethyl)pyrrolidine-2-carboxamide]	< 100	> 90	< 100	70 to 90
Cc1ncsc1-c1ccc([C@H](C)NC(=O)[C@@H]2C[C@@H](O)CN2C(=O)[C@@H](NC(=O)C23CCC(CN4CCC(c5ccc6c(c5)-n5c(nc(=O)c7c(Cl)cccc75)C6(C)C)CC4)(CC2)C3)C(C)(C)C)cc1 [Compound B77, (2S,4R)-1-((S)-2-(4-((4-(4-chloro-7,7-dimethyl-5-oxo-5,7-dihydroindolo[1,2-a]quinazolin-10-yl)piperidin-1-yl)methyl)bicyclo[2.2.1]heptane-1-carboxamido)-3,3-dimethylbutanoyl)-4-hydroxy-N-((S)-1-(4-(4-methylthiazol-5-yl)phenyl)ethyl)pyrrolidine-2-carboxamide]	< 100	> 90	100 to 500	50 to 69
Cc1ncsc1-c1ccc([C@H](C)NC(=O)[C@@H]2C[C@@H](O)CN2C(=O)[C@@H](c2cc(N3CCC(CN4CCC(c5ccc6c(c5)C(C)(C)c5nc(=O)c7c(Cl)cccc7n5-6)CC4)CC3)no2)C(C)C)cc1 [Compound B9, (2S,4R)-1-((R)-2-(3-(4-((4-(4-chloro-7,7-dimethyl-5-oxo-5,7-dihydroindolo[1,2-a]quinazolin-9-yl)piperidin-1-yl)methyl)piperidin-1-yl)isoxazol-5-yl)-3-methylbutanoyl)-4-hydroxy-N—((S)-1-(4-(4-methylthiazol-5-yl)phenyl)ethyl)pyrrolidine-2-carboxamide]	< 100	> 90	< 100	> 90
Cc1ncsc1-c1ccc([C@H](C)NC(=O)[C@@H]2C[C@@H](O)CN2C(=O)[C@@H](c2cc(OCCCCn3cc(-c4ccc5c(c4)-n4c(nc(=O)c6c(Cl)cccc64)C5(C)C)cn3)no2)C(C)C)cc1 [Compound B97, (2S,4R)-1-((R)-2-(3-(4-(4-(4-chloro-7,7-dimethyl-5-oxo-5,7-dihydroindolo[1,2-a]quinazolin-10-yl)-1H-pyrazol-1-yl)butoxy)isoxazol-5-yl)-3-methylbutanoyl)-4-hydroxy-N-((S)-1-(4-(4-methylthiazol-5-yl)phenyl)ethyl)pyrrolidine-2-carboxamide]	100 to 500	50 to 69	100 to 500	< 50
Cc1ncsc1-c1ccc([C@H](C)NC(=O)[C@@H]2C[C@@H](O)CN2C(=O)[C@@H](n2cc([C@H](C)N3CCC(c4ccc5c(c4)-n4c(nc(=O)c6c(Cl)cccc64)C5(C)C)CC3)nn2)C(C)(C)C)cc1 [Compound B68, (2S,4R)-1-((S)-2-(4-((S)-1-(4-(4-chloro-7,7-dimethyl-5-oxo-5,7-dihydroindolo[1,2-a]quinazolin-10-yl)piperidin-1-yl)ethyl)-1H-1,2,3-triazol-1-yl)-3,3-dimethylbutanoyl)-4-hydroxy-N-((S)-1-(4-(4-methylthiazol-5-yl)phenyl)ethyl)pyrrolidine-2-carboxamide]	< 100	> 90	501 to 1000	< 50
Cc1ncsc1-c1ccc([C@H](C)NC(=O)[C@@H]2C[C@@H](O)CN2C(=O)[C@@H](NC(=O)CCCCn2cc(-c3ccc4c(c3)-n3c(nc(=O)c5c(Cl)cccc53)C4(C)C)cn2)C(C)(C)C)cc1 [Compound B64, (2S,4R)-1-((S)-2-(5-(4-(4-chloro-7,7-dimethyl-5-oxo-5,7-dihydroindolo[1,2-a]quinazolin-10-yl)-1H-pyrazol-1-yl)pentanamido)-3,3-dimethylbutanoyl)-4-hydroxy-N-((S)-1-(4-(4-methylthiazol-5-yl)phenyl)ethyl)pyrrolidine-2-carboxamide]	100 to 500	< 50	> 1000	< 50
Cc1ncsc1-c1ccc([C@H](C)NC(=O)[C@@H]2C[C@@H](O)CN2C(=O)[C@H](C(C)C)n2cc(C3CCC(CN4CCC(c5ccc6c(c5)C(C)(C)c5nc(=O)c7c(Cl)cccc7n5-6)CC4)CC3)nn2)cc1 (stereo partly drawn) [Compound B19, (2S,4R)-1-((S)-2-(4-(4-((4-(4-chloro-7,7-dimethyl-5-oxo-5,7-dihydroindolo[1,2-a]quinazolin-9-yl)piperidin-1-yl)methyl)cyclohexyl)-1H-1,2,3-triazol-1-yl)-3-methylbutanoyl)-4-hydroxy-N-((S)-1-(4-(4-methylthiazol-5-yl)phenyl)ethyl)pyrrolidine-2-carboxamide]	< 100	> 90	100 to 500	70 to 90
Cc1ncsc1-c1ccc([C@H](C)NC(=O)[C@@H]2C[C@@H](O)CN2C(=O)C(c2cc(N3CCC(c4ccc5c(c4)C(C)(C)c4nc(=O)c6c(Cl)cccc6n4-5)CC3)no2)C(C)C)cc1 (stereo partly drawn) [Compound B42, (2S,4R)-1-(2-(3-(4-(4-chloro-7,7-dimethyl-5-oxo-5,7-dihydroindolo[1,2-a]quinazolin-9-yl)piperidin-1-yl)isoxazol-5-yl)-3-methylbutanoyl)-4-hydroxy-N—((S)-1-(4-(4-methylthiazol-5-yl)phenyl)ethyl)pyrrolidine-2-carboxamide]	< 100	> 90	< 100	70 to 90
Cc1ncsc1-c1ccc([C@H](CCCCCN2CCC(c3ccc4c(c3)C(C)(C)c3nc(=O)c5c(Br)cccc5n3-4)CC2)NC(=O)[C@@H]2C[C@@H](O)CN2C(=O)[C@@H](NC(=O)C2(F)CC2)C(C)(C)C)cc1 [Compound B2, (2S,4R)—N—((S)-6-(4-(4-bromo-7,7-dimethyl-5-oxo-5,7-dihydroindolo[1,2-a]quinazolin-9-yl)piperidin-1-yl)-1-(4-(4-methylthiazol-5-yl)phenyl)hexyl)-1-((S)-2-(1-fluorocyclopropane-1-carboxamido)-3,3-dimethylbutanoyl)-4-hydroxypyrrolidine-2-carboxamide]	< 100	> 90	< 100	> 90
Cc1ncsc1-c1ccc([C@H](C)NC(=O)[C@@H]2C[C@@H](O)CN2C(=O)C(c2cc(CN3CCC(c4ccc5c(c4)-n4c(nc(=O)c6c(Cl)cccc64)C5(C)C)CC3)no2)C(C)C)cc1 (stereo partly drawn) [Compound B62, (2S,4R)-1-(2-(3-((4-(4-chloro-7,7-dimethyl-5-oxo-5,7-dihydroindolo[1,2-a]quinazolin-10-yl)piperidin-1-yl)methyl)isoxazol-5-yl)-3-methylbutanoyl)-4-hydroxy-N-((S)-1-(4-(4-methylthiazol-5-yl)phenyl)ethyl)pyrrolidine-2-carboxamide]	< 100	50 to 69	> 1000	< 50
Cc1ncsc1-c1ccc(CNC(=O)[C@@H]2C[C@@H](O)CN2C(=O)[C@@H](NC(=O)C2(F)CC2)C(C)(C)C)c(OCCCCN2CCC(c3ccc4c(c3)-n3c(nc(=O)c5c(Cl)cccc53)C4(C)C)CC2)c1 [Compound B35, (2S,4R)—N-(2-(4-(4-(4-chloro-7,7-dimethyl-5-oxo-5,7-dihydroindolo[1,2-a]quinazolin-10-yl)piperidin-1-yl)butoxy)-4-(4-methylthiazol-5-yl)benzyl)-1-((S)-2-(1-fluorocyclopropane-1-carboxamido)-3,3-dimethylbutanoyl)-4-hydroxypyrrolidine-2-carboxamide]	< 100	> 90	< 100	> 90
